Reference: patent US20260250270A1, “Compound Used as Kinase Inhibitor and Use Thereof” (TYK MEDICINES, INC., priority 2022, published 2026)

What was measured:
[1] = molecular target: Ba/F3-FL-EGFR-D770-N771 ins SVD (Homo sapiens, UniProt P00533, DUP768-770, cells depend on it); experiment: Cell proliferation inhibition (CellTiter-Glo), EGFR exon 20 insertion engineered cells; format: cell-based; conditions: 72 h, read-out: IC50, Ba/F3-FL-EGFR D770-N771ins SVD
Method: (§1) The selected engineering cells Ba/F3-FL-EGFR-V769-D770 ins ASV, Ba/F3-FL-EGFR-D770-N771 ins SVD, Ba/F3-FL-EGFR-H773-V774 ins NPH, Ba/F3-FL-EGFR-A763-Y764 ins FQEA, Ba/F3-HER2-A775-G776 ins YVMA were provided by Hefei PreceDo Biomedical Technology Co., LTD and were validated prior to use in this study.
(§2) A 20× stock of the compound to be tested was prepared for use, with 9 concentrations in 3-fold gradient dilution, diluted from 1 μM.
(§3) The logarithmic growth phase cell suspension was inoculated into 96-well white cell culture plates with 95 μL volume per well (2000 cells/well). 5 μL of 20× Compound to be tested was added to the plate containing 95 μL of cell suspension according to the plate spreading diagram, and then mixed well. The plate was incubated in a 5% CO2 incubator at 37° C. for 72 h. The proliferation inhibition activity of the compounds was determined by the CellTiter-Glo method, and the fluorescence value per well, RLU, was obtained from the SpectraMax Paradigm reading. Inhibition Rate data were processed using the following formula: Inhibition Rate (Inh %)=100−(RLU compound−RLU blank)/(RLU control−RLU blank)*100%. The cell viability corresponding to different concentrations of compounds was calculated in EXCEL, and then GraphPad Prism software was used to plot the cell viability curve and calculate the IC50 value.

[2] = molecular target: Ba/F3-FL-EGFR-V769-D770 ins ASV (Homo sapiens, UniProt P00533, DUP767-769, cells depend on it); experiment: as above; format: cell-based; conditions: 72 h, read-out: IC50, Ba/F3-FL-EGFR V769-D770ins ASV
Method: as §1, §2, §3

[3] = molecular target: Ba/F3-FL-EGFR-A763-Y764 ins FQEA (Homo sapiens, UniProt P00533, INS763FQEA, cells depend on it); experiment: as above; format: cell-based; conditions: 72 h, read-out: IC50, Ba/F3-FL-EGFR A763-Y764ins FQEA
Method: as §1, §2, §3

[4] = molecular target: Ba/F3-FL-EGFR-H773-V774 ins NPH (Homo sapiens, UniProt P00533, DUP771-773, cells depend on it); experiment: as above; format: cell-based; conditions: 72 h, read-out: IC50, Ba/F3-FL-EGFR H773-V774ins NPH
Method: as §1, §2, §3

PC9 = experiment: Cell proliferation inhibition (CellTiter-Glo) on cell line PC9; format: cell-based; conditions: Homo sapiens, PC-9
Method: (§4) The cell lines NCI-H1975 and PC9 selected for the experiments were provided by Sino-American Guanke Biotechnology (Beijing) Co. and were validated prior to use in this study.
(§5) A 10× stock of the compound to be tested was prepared for use, with 9 concentrations in 4-fold gradient dilution, diluted from 10 μM.
(§6) The logarithmic growth phase cell suspension was inoculated into a 96-well culture plate with 90 μL volume per well (2000 cells/well). 10 μL of 10× Compound to be tested was added to the plate according to the plate spreading diagram, and then mixed well. The plate was incubated in a 5% CO2 incubator at 37° C. The proliferation inhibitory activity of the compound was determined by the CellTiter-Glo method. Cell proliferation inhibition rate (Inhibition Rate) data were plotted using GraphPad Prism 8.0 software for cell viability curves and IC50 values were calculated.

[5] = molecular target: Ba/F3-HER2-A775-G776 ins YVMA (Homo sapiens, UniProt P04626, DUP772-775, cells depend on it); experiment: Cell proliferation inhibition (CellTiter-Glo), HER2 exon 20 insertion engineered cells; format: cell-based; conditions: for GI50: 72 h, CellTiter-Glo, read-out: IC50, Ba/F3-HER2-A775-G776ins YVMA
Method: as §1, §2, §3

NCI-H1975 = experiment: Cell proliferation inhibition (CellTiter-Glo) on cell line NCI-H1975; format: cell-based; conditions: Homo sapiens
Method: as §4, §5, §6

[6] = test system: Ba/F3 EGFR D770_N771 ins SVD; experiment: In vivo pharmacodynamic study, Ba/F3-EGFR-D770_N771 ins SVD subcutaneous xenograft model; parameters: species or system nude mice; conditions: 30 mg/kg, P.O, QD * 14 days
Method: The experimental design and results were shown in Table 9, wherein P.O referred to administered orally; QD: once a day; TGI (Tumor volume inhibition rate)=(1-Tumor weight of the treatment group/Tumor weight of the control group)*100%. The cell line Ba/F3 EGFR D770_N771 ins SVD was cultured in 37° C., 5% CO2 with RPMI1640+10% fetal bovine serum+1% double antibody, and passaged 2-3 times a week. When the cell saturation was 80-90% and the number of cells met the requirement, the cells were collected. 0.2 mL (1*10^6) cells were subcutaneously inoculated into the right back of 6-8 weeks old female nude mice weighing 18-22 g. When the average tumor volume reached approximately 150-200 mm^3, grouping and drug administration started. Before the start of drug administration, all animals were weighed and the tumor volume was measured with vernier calipers. Mice were randomly grouped according to tumor volume to ensure that tumor volumes were similar between groups. Three mice in each group were administered orally once daily, and the inoculation site was observed after administration. Tumor volume and mouse body weight were measured twice a week.

[7] = test system: Lung cancer LU0387PDX model; experiment: Pharmacodynamic study on lung cancer LU0387PDX model; format: in vivo, mice; conditions: LU0387 model; for TGI (%): P.O, QD * 13 days
From the text: Lung cancer LU0387PDX model is a commonly used xenograft tumor model from Crown Bioscience, the experimental situation of this model is described as follows: after euthanasia of tumor-bearing mice, the tumor blocks were dissected out in aseptic condition, the blocks were cleaned to remove blood stains and connective tissues and necrotic parts, and the tumors were cut into small pieces of 2*2*2 mm^3, and inoculated with an adapter needle in sterilized experimental mice subcutaneously on the right dorsal side. Tumor growth was regularly observed, and when the tumors grew to an average volume of 100~200 mm^3, mice were randomly grouped according to tumor size and body weight for drug administration. Before the start of drug administration, all animals were weighed and the tumor volume was measured with vernier calipers. Mice were randomly grouped according to tumor volume to ensure that tumor volumes were similar between groups. Three mice in each group were administered orally once daily, and the inoculation site was observed after administration. Tumor volume and mouse body weight were measured twice a week. The experimental design and results were shown in Table 9, wherein P.O referred to administered orally; QD: once a day; TGI (Tumor volume inhibition rate)=(1-Tumor weight of the treatment group/Tumor weight of the control group)*100%.

Ba/F3-FL-EGFR-D770-N771 ins SVD, sequence (P00533 with tags, fused parts or gaps DUP768-770): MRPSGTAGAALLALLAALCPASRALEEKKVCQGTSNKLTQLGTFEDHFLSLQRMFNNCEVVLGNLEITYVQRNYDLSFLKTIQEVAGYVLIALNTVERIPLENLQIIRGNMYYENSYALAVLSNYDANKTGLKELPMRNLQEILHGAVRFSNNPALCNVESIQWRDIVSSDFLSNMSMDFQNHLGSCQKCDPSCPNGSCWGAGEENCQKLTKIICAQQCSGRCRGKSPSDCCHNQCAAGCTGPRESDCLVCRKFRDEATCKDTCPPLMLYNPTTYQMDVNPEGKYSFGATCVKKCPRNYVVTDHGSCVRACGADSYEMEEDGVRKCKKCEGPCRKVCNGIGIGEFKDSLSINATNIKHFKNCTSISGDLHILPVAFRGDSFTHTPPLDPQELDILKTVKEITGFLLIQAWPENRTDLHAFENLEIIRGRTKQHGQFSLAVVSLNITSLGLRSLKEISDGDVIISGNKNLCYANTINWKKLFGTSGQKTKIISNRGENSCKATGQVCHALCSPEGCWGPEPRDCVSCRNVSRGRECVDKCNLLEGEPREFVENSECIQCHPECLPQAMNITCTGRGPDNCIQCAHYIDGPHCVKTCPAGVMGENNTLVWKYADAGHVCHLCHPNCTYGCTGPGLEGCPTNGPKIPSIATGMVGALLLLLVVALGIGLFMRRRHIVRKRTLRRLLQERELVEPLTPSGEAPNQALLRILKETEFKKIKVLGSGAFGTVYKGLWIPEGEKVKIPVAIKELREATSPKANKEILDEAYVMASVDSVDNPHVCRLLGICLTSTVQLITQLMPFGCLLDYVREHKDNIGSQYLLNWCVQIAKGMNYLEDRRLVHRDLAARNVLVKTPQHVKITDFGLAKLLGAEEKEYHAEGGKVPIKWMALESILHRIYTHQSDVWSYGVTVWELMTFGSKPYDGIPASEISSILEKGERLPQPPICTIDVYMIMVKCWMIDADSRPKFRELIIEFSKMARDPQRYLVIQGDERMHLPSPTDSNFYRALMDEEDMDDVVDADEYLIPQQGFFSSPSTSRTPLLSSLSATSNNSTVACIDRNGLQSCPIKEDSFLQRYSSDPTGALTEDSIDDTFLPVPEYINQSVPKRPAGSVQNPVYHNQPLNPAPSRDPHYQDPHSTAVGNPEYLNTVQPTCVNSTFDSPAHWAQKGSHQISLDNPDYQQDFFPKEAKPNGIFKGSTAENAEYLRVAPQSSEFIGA
Ba/F3-FL-EGFR-V769-D770 ins ASV, sequence (P00533 with tags, fused parts or gaps DUP767-769): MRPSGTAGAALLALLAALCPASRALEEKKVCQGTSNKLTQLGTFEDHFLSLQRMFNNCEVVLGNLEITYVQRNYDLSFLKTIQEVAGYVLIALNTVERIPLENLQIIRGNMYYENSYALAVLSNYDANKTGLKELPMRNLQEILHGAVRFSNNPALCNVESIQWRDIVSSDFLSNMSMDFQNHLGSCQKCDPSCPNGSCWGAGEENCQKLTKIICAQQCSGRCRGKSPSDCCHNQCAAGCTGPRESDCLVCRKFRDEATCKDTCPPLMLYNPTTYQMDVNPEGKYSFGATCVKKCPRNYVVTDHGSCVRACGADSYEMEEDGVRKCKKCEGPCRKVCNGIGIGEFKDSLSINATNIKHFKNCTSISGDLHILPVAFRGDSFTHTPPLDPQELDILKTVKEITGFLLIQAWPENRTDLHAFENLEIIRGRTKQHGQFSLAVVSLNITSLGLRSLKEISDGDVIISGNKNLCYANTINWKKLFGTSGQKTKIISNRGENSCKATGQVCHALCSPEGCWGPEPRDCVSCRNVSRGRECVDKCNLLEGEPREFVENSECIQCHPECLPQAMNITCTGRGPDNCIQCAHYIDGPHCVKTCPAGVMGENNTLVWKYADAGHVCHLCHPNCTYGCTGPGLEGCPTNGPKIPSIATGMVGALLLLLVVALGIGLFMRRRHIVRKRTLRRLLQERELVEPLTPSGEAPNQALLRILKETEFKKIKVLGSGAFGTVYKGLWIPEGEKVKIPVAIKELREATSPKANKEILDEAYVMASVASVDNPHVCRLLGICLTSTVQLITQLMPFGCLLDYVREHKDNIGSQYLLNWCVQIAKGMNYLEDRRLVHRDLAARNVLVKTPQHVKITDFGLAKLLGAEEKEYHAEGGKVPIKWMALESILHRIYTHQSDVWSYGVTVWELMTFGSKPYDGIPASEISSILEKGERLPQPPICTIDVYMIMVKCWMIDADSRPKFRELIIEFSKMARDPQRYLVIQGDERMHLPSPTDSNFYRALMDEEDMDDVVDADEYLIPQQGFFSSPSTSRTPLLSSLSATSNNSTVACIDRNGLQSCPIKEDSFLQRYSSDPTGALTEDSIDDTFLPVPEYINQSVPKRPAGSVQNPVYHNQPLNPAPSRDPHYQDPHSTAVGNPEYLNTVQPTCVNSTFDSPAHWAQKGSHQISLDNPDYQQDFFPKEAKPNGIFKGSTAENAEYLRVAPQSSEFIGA
Ba/F3-FL-EGFR-A763-Y764 ins FQEA, sequence (P00533 with tags, fused parts or gaps INS763FQEA): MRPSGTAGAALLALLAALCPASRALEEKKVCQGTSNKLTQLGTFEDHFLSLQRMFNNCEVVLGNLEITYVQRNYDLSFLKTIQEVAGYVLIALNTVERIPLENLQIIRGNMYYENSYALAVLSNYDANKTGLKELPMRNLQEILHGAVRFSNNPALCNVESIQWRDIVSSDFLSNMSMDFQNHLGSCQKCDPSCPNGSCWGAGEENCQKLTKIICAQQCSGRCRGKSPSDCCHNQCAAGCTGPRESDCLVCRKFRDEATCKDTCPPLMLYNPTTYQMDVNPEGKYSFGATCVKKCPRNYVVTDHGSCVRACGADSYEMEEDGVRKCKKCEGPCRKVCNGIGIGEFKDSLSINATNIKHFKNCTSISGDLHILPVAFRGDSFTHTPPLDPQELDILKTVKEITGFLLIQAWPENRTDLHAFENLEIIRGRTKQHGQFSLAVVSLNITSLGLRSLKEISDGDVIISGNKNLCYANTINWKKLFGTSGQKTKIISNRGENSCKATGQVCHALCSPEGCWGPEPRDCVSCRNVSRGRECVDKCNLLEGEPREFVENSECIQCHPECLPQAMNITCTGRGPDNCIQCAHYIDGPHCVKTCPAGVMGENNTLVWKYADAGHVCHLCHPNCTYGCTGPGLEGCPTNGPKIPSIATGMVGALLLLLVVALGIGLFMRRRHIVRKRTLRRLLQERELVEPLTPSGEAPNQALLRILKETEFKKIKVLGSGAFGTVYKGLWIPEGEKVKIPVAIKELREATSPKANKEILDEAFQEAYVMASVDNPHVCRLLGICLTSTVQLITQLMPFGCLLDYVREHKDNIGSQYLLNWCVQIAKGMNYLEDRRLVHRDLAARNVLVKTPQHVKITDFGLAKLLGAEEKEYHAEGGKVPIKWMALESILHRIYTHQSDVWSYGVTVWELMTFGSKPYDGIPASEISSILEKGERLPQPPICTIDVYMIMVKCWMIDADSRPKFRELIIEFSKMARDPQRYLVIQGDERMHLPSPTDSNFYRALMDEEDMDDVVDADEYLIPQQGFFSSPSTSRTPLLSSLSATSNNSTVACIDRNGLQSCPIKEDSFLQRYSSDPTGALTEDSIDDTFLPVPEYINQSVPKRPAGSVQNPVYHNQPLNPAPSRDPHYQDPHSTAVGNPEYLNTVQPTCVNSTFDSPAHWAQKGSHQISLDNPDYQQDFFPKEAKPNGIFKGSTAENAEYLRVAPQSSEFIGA
Ba/F3-FL-EGFR-H773-V774 ins NPH, sequence (P00533 with tags, fused parts or gaps DUP771-773): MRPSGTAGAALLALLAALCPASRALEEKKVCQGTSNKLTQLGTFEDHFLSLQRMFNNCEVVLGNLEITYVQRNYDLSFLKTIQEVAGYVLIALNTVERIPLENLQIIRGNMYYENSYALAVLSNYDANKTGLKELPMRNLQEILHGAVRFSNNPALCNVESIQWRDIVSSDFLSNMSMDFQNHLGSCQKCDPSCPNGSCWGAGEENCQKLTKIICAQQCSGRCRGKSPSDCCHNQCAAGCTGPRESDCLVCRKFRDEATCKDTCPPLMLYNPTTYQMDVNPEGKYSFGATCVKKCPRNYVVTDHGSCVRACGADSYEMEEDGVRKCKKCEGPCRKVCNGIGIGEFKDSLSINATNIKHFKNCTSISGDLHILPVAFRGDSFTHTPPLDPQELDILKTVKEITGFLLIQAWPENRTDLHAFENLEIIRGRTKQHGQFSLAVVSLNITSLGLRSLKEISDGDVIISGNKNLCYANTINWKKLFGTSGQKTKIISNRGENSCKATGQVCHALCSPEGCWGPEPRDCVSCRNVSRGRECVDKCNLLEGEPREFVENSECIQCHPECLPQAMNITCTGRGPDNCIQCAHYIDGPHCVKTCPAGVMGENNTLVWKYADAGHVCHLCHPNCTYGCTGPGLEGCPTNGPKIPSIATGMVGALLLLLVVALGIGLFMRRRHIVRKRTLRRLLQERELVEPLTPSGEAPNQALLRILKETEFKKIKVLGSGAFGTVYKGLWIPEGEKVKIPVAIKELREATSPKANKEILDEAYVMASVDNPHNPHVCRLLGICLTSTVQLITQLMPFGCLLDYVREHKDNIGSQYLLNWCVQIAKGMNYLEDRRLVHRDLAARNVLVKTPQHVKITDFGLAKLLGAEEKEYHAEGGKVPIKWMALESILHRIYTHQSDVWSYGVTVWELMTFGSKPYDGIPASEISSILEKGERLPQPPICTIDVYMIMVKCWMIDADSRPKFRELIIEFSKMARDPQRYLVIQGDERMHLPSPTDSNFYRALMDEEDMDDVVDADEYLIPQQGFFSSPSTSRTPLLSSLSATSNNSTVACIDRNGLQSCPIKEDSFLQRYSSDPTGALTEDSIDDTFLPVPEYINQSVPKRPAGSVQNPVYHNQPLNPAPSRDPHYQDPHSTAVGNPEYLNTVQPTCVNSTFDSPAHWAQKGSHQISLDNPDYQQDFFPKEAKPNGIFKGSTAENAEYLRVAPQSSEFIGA

Row | SMILES | GI50 [1] | GI50 [2] | GI50 [3] | GI50 [4] | IC50 (PC9) | GI50 [5] | IC50 (NCI-H1975) | TGI (%) [6] | TGI (%) ([7]; 30 mg/kg) | TGI (%) ([7]; 50 mg/kg) | efficacy compared with controls (FIG. 1, tumor volume) ([7]; same dose) | cellular activity against HER2 exon 20 insertion mutations compared with controls ([5]; Table 7)
1 | [2H]C([2H])([2H])n1cc(-c2nc(Nc3cc(NC(=O)C=C)c(N(C)[C@@H]4[C@@H]5CN(C)C[C@@H]54)cc3OC)ncc2C(=O)OC(C)C)c2ccccc21 [Example 2] | ≤ 30 nM | ≤ 30 nM | ≤ 30 nM | ≤ 30 nM | – | – | – | – | – | – | – | –
2 | [2H]C([2H])([2H])N(c1cc(OC)c(Nc2ncc(-c3nnc(C)o3)c(-c3cn(C)c4ccccc34)n2)cc1NC(=O)C=C)[C@@H]1[C@@H]2CN(C)C[C@@H]21 [Example 7] | ≤ 30 nM | ≤ 30 nM | ≤ 30 nM | ≤ 30 nM | – | – | – | – | – | – | – | –
3 | C=CC(=O)Nc1cc(Nc2ncc(C(=O)OC(C)C)c(-c3cn(C)c4ccccc34)n2)c(OC)cc1N(C)[C@@H]1[C@@H]2CN(C)C[C@@H]21 [Example 1] | ≤ 30 nM | ≤ 30 nM | ≤ 30 nM | ≤ 30 nM | ≤ 30 nM | ≤ 30 nM | ≤ 30 nM | 61.08% | 79.01% | 97.44% | superior to that of TAK-788 and DZD9008 | –
4 | [2H]C([2H])([2H])N1C[C@@H]2[C@H](C1)[C@@H]2N(C)c1cc(OC)c(Nc2ncc(-c3nnc(C)o3)c(-c3cn(C)c4ccccc34)n2)cc1NC(=O)C=C [Example 8] | ≤ 30 nM | ≤ 30 nM | ≤ 30 nM | ≤ 30 nM | – | – | – | – | – | – | – | –
5 | C=CC(=O)Nc1cc(Nc2ncc(-c3nnc(C)o3)c(-c3cn(C)c4ccccc34)n2)c(OC)cc1N(C)[C@@H]1[C@@H]2CN(C)C[C@@H]21 [Example 5] | ≤ 30 nM | ≤ 30 nM | ≤ 30 nM | ≤ 30 nM | ≤ 30 nM | ≤ 30 nM | ≤ 30 nM | 59.51% | 66.90% | – | – | comparable to that of TAK-788 and superior to that of DZD9008
6 | C=CC(=O)Nc1cc(Nc2ncc(-c3nnc(C)o3)c(-c3cn(C)c4ccccc34)n2)c(OC)cc1N(C)[C@H]1[C@@H]2CN(C)C[C@@H]21 [Example 18, reference compound] | – | – | – | – | – | – | – | 32.22% | – | – | – | –
7 | C=CC(=O)Nc1cc(Nc2ncc(C(=O)OC(C)C)c(-c3cn(C)c4ccccc34)n2)c(OC)cc1N(C)[C@H]1[C@@H]2CN(C)C[C@@H]21 [Example 40, reference compound] | – | – | – | – | – | – | – | 37.84% | – | – | – | –
8 | [2H]C([2H])([2H])N(c1cc(OC)c(Nc2ncc(C(=O)OC(C)C)c(-c3cn(C)c4ccccc34)n2)cc1NC(=O)C=C)[C@@H]1[C@@H]2CN(C)C[C@@H]21 [Example 3] | ≤ 30 nM | ≤ 30 nM | ≤ 30 nM | ≤ 30 nM | – | – | – | – | – | – | – | –
